Data as given in the METLIN SMRT retention time set (Domingo-Almenara et al. 2019).

Test: gradient 5% acetonitrile 3 min, to 50% in 2 min, to 85% in 15 min, held 3 min, 100 µL/min
Details: column: Zorbax Extend-C18 2.1 x 50 mm; eluents: water / acetonitrile, 0.1% formic acid
Summary of the method: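 Data were gathered over 3 months by HPLC coupled to a quadrupole time-of-flight mass spectrometer, operated in positive and negative ionization mode. Mixtures of ~100 pure standards ran on a Zorbax Extend-C18 column (2.1 × 50 mm, 1.8 μm) at 100 μL/min, with water and acetonitrile each containing 0.1% formic acid and dead and dwell volumes of 40 μL and 900 μL. Retention time was read from adduct peaks picked by computer and checked manually.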

| Compound | RP-LC retention time |
| --- | --- |
| COc1cc(F)ccc1-c1ccnc2ncnn12 | 681 s |
| CCCn1c(C)cnc1C1CN(S(=O)(=O)c2ccc(Cl)c(C)c2)C1 | 732 s |
| CCOc1ccc(C(=O)N2CCC3(CC2)c2nccn2-c2ccccc2CN3C)cc1 | 632 s |
| Cc1ccc(Cl)c(NC(=O)c2[nH]c3cc(C)sc3c2CN(C)C)c1 | 688 s |
| Cc1ccc(C)c(NC(=O)N2C[C@H](c3nc(-c4ccncc4)no3)[C@@H](C)C2)c1 | 830 s |
| Cc1ccccc1Nc1c(-c2ccc(O)cc2)nc2c(C)cccn12 | 651 s |
| CC(C)Cc1nnc(NC(=O)C2CCN(C(=O)c3ccccc3)CC2)s1 | 750 s |
| Cc1ccn(S(=O)(=O)c2ccc(C(C)(C)C)cc2)n1 | 983 s |
| O=C(Cn1cnc2nc(N3CCCC(C(=O)NC4CC4)C3)sc2c1=O)Nc1ccccc1F (configuration not stated) | 668 s |
| CC(C)c1ccc(NC(=O)CN2C(=O)C3CCCCN3c3ccc(C(=O)N4CCOCC4)cc32)cc1 (configuration not stated) | 909 s |
| CC1=C(c2ccc(C)cc2)S(=O)(=O)N=C1N1CCCN(C(=O)CC2CCCCC2)CC1 | 962 s |
| Cc1cc(C(=O)N2C[C@@H](CO)[C@H](N(C)C)C2)ccc1Br | 597 s |
| Cc1ccccc1-c1noc(-c2cccn(CC(=O)NCC3CCCO3)c2=O)n1 (configuration not stated) | 729 s |
| Cc1nc(-c2ccccc2)cc2nn(CC(=O)N3CCCc4ccccc43)c(=O)n12 | 1010 s |
| COC(=O)c1ccccc1NC(=O)Cn1nc2n(c1=O)CCCCC2 | 756 s |
| O=c1n(Cc2ccccc2)nc2c(S(=O)(=O)N3CCCCC3)cccn12 | 647 s |
| COc1ccc(OC)c(CNC(=O)C2CCCN(c3ccc(=O)n(-c4cccc(F)c4)n3)C2)c1 (configuration not stated) | 827 s |
| CCCN1C(=O)COc2ccc(-c3noc(-c4cccc5[nH]ccc45)n3)cc21 | 1070 s |
| COc1ccc(-c2c(C)noc2NC(C)=O)cc1S(=O)(=O)NCCc1ccc(Cl)cc1 | 894 s |
| CN(C)c1ccc(Nc2nc(-c3ccc(Br)cc3)cs2)cc1 | 787 s |
| CN(C)CCNC(=O)c1ccc2c(c1)N(Cc1ccc(F)cc1)C(=O)CO2 | 616 s |
| COCCNC(=O)c1coc(NC(=O)c2cnccn2)n1 | 548 s |
| CCn1nccc1C(=O)N1CCCC1c1ccccc1Cl (configuration not stated) | 849 s |

| Compound | RP-LC retention time |
| --- | --- |
| O=c1c(O[C@@H]2O[C@H](CO)[C@H](O)[C@H](O)[C@H]2O)c(-c2ccc(O)c(O)c2)oc2cc(O)cc(O)c12 | 656 s |
| CCOC(=O)Cn1nc(-n2ccnc2)ccc1=O | 503 s |
| OCC1CN(c2ncccn2)CC12CCN(Cc1ccc3cc[nH]c3c1)CC2 (configuration not stated) | 584 s |
| CCN1C(=O)COc2ccc(-c3noc(-c4cnccn4)n3)cc21 | 802 s |
| CCCn1cc(CCNC(=O)c2ccc(F)cc2)c2cccnc21 | 732 s |
| CCn1cc(CCNC(=O)Nc2ccccc2OC)c2cccnc21 | 718 s |
| O=C(c1ccc(F)c(Cl)c1)N1CCN(c2cc(-c3cccnc3)[nH]n2)CC1 | 620 s |
| O=C(Nc1ccc(F)cc1)N1CCN(c2ccc(C(F)(F)F)cn2)CC1 | 921 s |
| O=C(NCc1ccc2c(c1)OCO2)C1CCCN(c2cnc3ccccc3n2)C1 (configuration not stated) | 736 s |
| Cc1nc(C2CCOCC2)n(C2CCN(S(=O)(=O)c3ccc(Cl)cc3C)C2)n1 (configuration not stated) | 771 s |
| CS(=O)(=O)Nc1ccc(-c2noc(COc3ccc(Cl)cc3)n2)cc1 | 974 s |
| O=C(CCc1ccc2nc[nH]c2c1)Nc1ccc2c(c1)OCCO2 | 591 s |
| Cc1nc(-c2ccc3c(c2)CCN3C(=O)Cc2cccc(F)c2)cs1 | 991 s |
| CCc1cc(=O)n(CC(=O)Nc2ccc(C)cc2C)c(N2CCOCC2)n1 | 767 s |
| CC1CCCN(c2ccc(-c3noc(CN4CCN(CC(=O)NC(C)C)CC4)n3)cn2)C1 (configuration not stated) | 635 s |
| CC(C)NC(=O)Cn1nc2c3cc(-c4ccc(F)cc4)nn3ccn2c1=O | 785 s |
| CCCCN(C)C(=O)c1ccc(-c2nnc3ccc(NC(=O)CC)cn23)cc1 | 740 s |
| CCc1csc(-c2ccc(N3CCN(C(=O)c4ccc(F)cc4)CC3)nc2)n1 | 921 s |
| O=C(CCn1cnc2cc(-c3noc(-c4ccc(Br)o4)n3)ccc21)N1CCCCC1 | 796 s |
| O=C(CCC1CCCN(S(=O)(=O)c2ccccc2)C1)NCC1CCCCC1 (configuration not stated) | 956 s |
| O=C1CN(C(=O)Cc2ccc(Cl)cc2)C2(CCCC2)CN1 | 761 s |
| CC1CCCCN1c1nc(-c2ccc([N+](=O)[O-])cc2)nc2ccccc12 (configuration not stated) | 948 s |
| Cc1cccc(CC(=O)N2CCCn3cc(-c4cccc(C#N)c4)nc32)c1 | 782 s |

| Compound | RP-LC retention time |
| --- | --- |
| O=C(Cn1c(=O)cc(-c2nc(C3CC3)no2)c2ccccc21)NCc1cccs1 | 882 s |
| CCSc1nnc(NC(=O)Cn2nc(-c3ccncc3)ccc2=O)s1 | 561 s |
| CC(NC(=O)c1ccc(F)c(F)c1)C(=O)Nc1nc2ccccc2[nH]1 (configuration not stated) | 655 s |
| Cc1nnc(-c2ccc3ccn(CC(=O)N4CCN(C5CCCCC5)CC4)c3c2)o1 | 620 s |
| COC(=O)c1ccc(NC(=O)CSc2ccc(NC(=O)c3ccccc3F)nn2)cc1 | 805 s |
| COc1cc(C)c(Cl)cc1S(=O)(=O)Nc1ccc(-c2cn3ccc(C)nc3n2)cc1 | 700 s |
| Cc1[nH]c2ccc(-c3nnc(SC(C)C(=O)Nc4ccc5c(c4)OCCO5)o3)cc2c1C (configuration not stated) | 936 s |
| Cn1cncc1C(=O)N1CC(F)(F)C[C@H]1c1nc(C2CC2)no1 | 620 s |
| CCC(=O)N1CCC([C@H]2[C@@H](OC)C(=O)N2C(C)C)CC1 | 644 s |
| CCN1CCN(CCNC(=O)CN2C(=O)CSc3cccn3-c3ccccc32)CC1 | 600 s |
| COc1ccccc1-c1nnc(-c2ccc(OC)c(S(=O)(=O)N3CCCCC3)c2)o1 | 937 s |
| CCn1nc(CNC(=O)Cc2ccccc2F)c2ccccc21 | 791 s |
| COC(=O)c1ccc2c(=O)n(-c3ccc(Cl)cc3)c(N3CCN(c4ccccn4)CC3)nc2c1 | 753 s |
| CCOC(=O)c1c(C)c(CCC(=O)NCc2ccc3c(c2)OCO3)n(C)c1C | 836 s |
| CC(=O)Nc1nc(-c2ccc(S(=O)(=O)Nc3ccc(C)cc3)cc2)cs1 | 854 s |
| CCc1cccc(NC(=O)Cn2c(=O)n(-c3cccc(C)c3)c(=O)c3c2cc(C)n3C)c1 | 966 s |
| CCOC(=O)c1c(C)oc2nc(C)nc(N(C)Cc3ccccc3)c12 | 1150 s |
| CC(C)CCNC(=O)CCC(=O)N1CCCn2nc(-c3cn(C)c4ccccc34)cc21 | 778 s |
| O=c1[nH]c2ccc(NCc3ccc(-c4ccccc4F)o3)cc2[nH]1 | 687 s |
| CCOC(=O)C1CCN(C(=O)COc2ccc(NC(=O)C3CC3)cn2)CC1 | 682 s |
| CCn1cc(C(=O)Nc2ccccc2)c2cccnc21 | 798 s |
